{"source": "paper PMC8882908", "about": "“Tricyclic Antidepressant Structure-Related Alterations in Calcium-Dependent Inhibition and Open-Channel Block of NMDA Receptors” (Frontiers in Pharmacology, 2022)", "key": {"NMDARs": {"test_system": "NMDARs", "settings": "cited from earlier work"}, "[1]": {"molecular_target": "N-methyl-D-aspartate receptors (NMDARs)", "settings": "read-out: model-predicted IC50; [Ca2+] = 2.5 mM, Vm = −70 mV", "text": "To obtain the voltage-dependence of NMDAR block by TCAs, the concentration-ihibition curves were generated at three membrane holding potentials Vm = −100, −70, and −30 mV. The obtained values were fitted with the modified by incorporating the dependence of NMDAR inhibition on [Ca^2+] ([Stepanenko et al., 2019]) Woodhull equation: IC50(Vm[Ca^2+])=IC50(0 mV)·exp(VmzδF/RT)·exp(-[Ca^2+]/X) (6) where IC50 (0 mV) and δ were set as free parameters. IC50 (0 mV) is the value of IC50 at Vm = 0 mV, δ is the fraction of the membrane voltage field exerting force on TCA at its binding site. z = 1 is a molecule electric charge for both DES and CLO. For Faraday constant, gas constant, and room temperature of 28°C, the RT/F ≈ 26 mV. RT/(zδF) is equal to Vm, producing an e-fold change of IC50, and X is equal to [Ca^2+], producing an e-fold change of IC50.\nThe model is described by Eq. 6 IC50 (Vm, [Ca^2+]) = IC50 (0 mV) • exp (Vm/(e-fold change Vm)) • exp (- [Ca^2+]/(e-fold change [Ca^2+])). The dependences of TCA IC50s on [Ca^2+] […]\nFIGURE 7 Predicted IC50 values for NMDAR inhibition by tricyclic antidepressants as a function of membrane voltage (Vm) and external [Ca^2+]. […] The IC50s were calculated as IC50(Vm, [Ca^2+]) = IC50(0 mV) · exp (Vm/Y) ·exp(-[Ca^2+]/X), where X is equal to the [Ca^2+] value required for an e-fold change of IC50, and Y is equal to the Vm value required for an e-fold change of IC50."}, "[2]": {"parameters": "method as in Stern et al., 1980; McTavish and Benfield 1990", "settings": "ref Stern et al., 1980; McTavish and Benfield 1990; cited from earlier work"}, "[3]": {"test_system": "N-methyl-D-aspartate receptors (NMDARs)", "settings": "for δ, fraction of the membrane electric field to the binding site: Woodhull model, from the outside", "experimental": "All procedures on animals were performed in accordance with the guide of the Federation for Laboratory Animal Science Associations (FELASA) and were approved by the Animal Care and Use Committees of Sechenov Institute. Briefly, 17 days pregnant Wistar rats (supplied by the Sechenov Institute Animal Facility) were sacrificed by 1 min CO2 inhalation in a plastic box connected to a CO2 tank. Fetuses were removed, and then primary cultures of rat cortical neurons were prepared using conventional procedures as described earlier ([Antonov and Johnson 1996]; [Mironova et al., 2007]). Neurons were grown in Neurobasal culture medium supplemented with B-27 (Gibco-Invitrogen, United Kingdom) on 7 mm glass coverslips coated with poly-D-lysine and were used for experiments after 10–14 days in culture ([Mironova et al., 2007]; [Han and Stevens 2009]).\nWhole-cell currents were recorded from cultured rat cortical neurons using a MultiClamp 700B patch-clamp amplifier. Recordings were low-pass filtered at 400 Hz and digitized at the acquisition rate of 20,000 samples per second by Digidata 1440A controlled by pClamp v10.6 software (Molecular Devices). Solution exchange was performed by means of a fast solution application system as described earlier ([Sibarov et al., 2015]). Unless otherwise specified, the external bathing solution contained (in mM): 144 NaCl; 2.8 KCl; 1.0 CaCl2; 10 HEPES, at pH 7.2–7.4, osmolarity 310 mOsm. The intrapipette solution contained (in mM): 120 CsF, 10 CsCl, 10 EGTA, and 10 HEPES, osmolarity 300 mOsm, with pH adjusted to 7.4 with CsOH. Patch pipettes of 4–6 MΩ were pulled from Sutter BF150-89-10 borosilicate capillaries. Experiments were performed at 22–25°C. Under control conditions, neurons were voltage clamped at −70 mV. Data are reported without corrections for liquid junction potential, which was measured as −11 mV. To activate NMDARs, 100 µM NMDA was always co-applied with 10 µM glycine as co-agonist. Some experiments were performed on neurons loaded with BAPTA. To load BAPTA, cortical neuron cultures were incubated in a bathing solution containing 5 µM BAPTA-AM for 1 h.\nTo determine the blocking potency of TCAs, NMDA elicited currents were measured in the absence and presence of different TCA concentrations ([B]). Amplitudes of currents measured in the presence of blocker (Ib) were normalized to maximal current response in control (Ic). The IC50 is the concentration of TCA that cause 50% of the maximal inhibition of currents, and the Hill coefficient (h) were estimated by fitting concentration-inhibition curves with the Hill equation: Ib/Ιc=1/(1+[Β]^h/ΙC50h) (1)\nTo obtain the voltage-dependence of NMDAR block by TCAs, the concentration-ihibition curves were generated at three membrane holding potentials Vm = −100, −70, and −30 mV. The obtained values were fitted with the modified by incorporating the dependence of NMDAR inhibition on [Ca^2+] ([Stepanenko et al., 2019]) Woodhull equation: IC50(Vm[Ca^2+])=IC50(0 mV)·exp(VmzδF/RT)·exp(-[Ca^2+]/X) (6) where IC50 (0 mV) and δ were set as free parameters. […] For Faraday constant, gas constant, and room temperature of 28°C, the RT/F ≈ 26 mV. RT/(zδF) is equal to Vm, producing an e-fold change of IC50, and X is equal to [Ca^2+], producing an e-fold change of IC50."}, "NMDAR channels": {"test_system": "NMDAR channels", "parameters": "method as in Reynolds and Miller 1988", "settings": "ref Reynolds and Miller 1988; cited from earlier work"}, "[4]": {"test_system": "N-methyl-D-aspartate receptors (NMDARs)", "assay": "Kinetics of NMDAR open-channel block and trapping block (block/unblock relaxations, AP5 washout protocol)", "assay_type": "cell-based, rat", "protocol": "Experiments were performed at 22–25°C.\nNMDAR current relaxations during block or unblock by TCA were fit with the single exponential equation: I =(Imax-Imin)·exp (-t/τ)+Imin (2) where Imax and Imin are maximal and minimal amplitudes of currents during relaxations and τ represents the time constant of the exponential component during block onset (τon) or offset (unblock, τoff). From these measurements, the rate constants of block (k^+) and unblock (k^−) was estimated. k^+ was obtained from τon measured at 20 and 90 μM DES (C1 and C2 respectively) using the equation: k^+=(1 /τonC2-1/τonC1)/(C2 - C1) (3)\nThe k^− was the reciprocal to measured τoff: k^-=1 /τoff (4)\nThe equilibrium dissociation constant (Kd) for DES was calculated as follows: Kd=k^-/ k^+ (5)\nThe rise time of currents activated by the testing NMDA + Gly application in trapping channel block experiments was fitted in ClampFit (pClamp, Axon Instruments) using the double exponential function: I=I1·exp(-t/τ1)+I2·exp(-t/τ2)- C (7) where I1 and I2 are amplitudes of the exponential and τ1 and τ2 are time constants of the exponential and C equals I1 + I2 + Ib.\nTo study the kinetics of open-channel block of NMDARs by DES, we performed experiments at a single Vm = −70 mV using a Ca^2+-free bathing solution to avoid the influence of the Ca^2+-dependent process. DES was applied at a steady state of NMDAR currents at high (90 μM) or low (20 μM) concentrations (Figure 4A). DES-induced block corresponds well to basic predictions of an open-channel block. The block onset (τon) and offset (τoff) were well fit by a single exponential function (Eq. 2). […] The rate constants of block and unblock calculated on the basis of Eqs 3, 4 were k^+ = 0.008 ± 0.002 s^−1 μM^−1; k^− = 0.039 ± 0.005 s^−1, correspondently.\nThe absence in records of “tail currents” upon the simultaneous removal of agonists and a blocker may speak in favor of trapping of the blocking molecule inside of the pore ([Costa and Albuquerque 1994]; [Vorobjev and Sharonova 1994]; [Benveniste and Mayer 1995]; [Sobolevsky et al., 1999]). We, therefore, further tested the possibility of trapping of DES in the pore of NMDARs by the channel closure. A series of experiments were carried out following the protocol used previously for ATL ([Stepanenko et al., 2019]). After reaching an equilibrium of NMDA-mediated currents, 90 μM DES was applied to the cell for 10 s until the development of a stable block with a small amount of residual current (Ib) (Figure 4C). […] Single exponential approximation of the data at Figure 4E (dashed line) elicits the time constant of 7.7 ± 1.8 s for DES escape from trapping, representing the quantitative characteristic of DES partial trapping block."}}, "note": "Where “and” joins values, the source holds several entries; their conditions need not be identical. Identical values can stand only once. Like-named read-outs stand apart in the source and are kept apart here.", "data": [{"compound": "CN(C)CCC=C1c2ccccc2CCc2ccccc21", "note": "[ATL, amitriptyline]", "values": [{"measurement": "e-fold change Vm", "setting": "NMDARs; ref Stepanenko et al., 2019", "value": 54, "unit": "mV"}, {"measurement": "e-fold change [Ca2+]", "setting": "NMDARs; ref Stepanenko et al., 2019", "value": 0.63, "unit": "mM"}, {"measurement": "time constant of escape from trapping block", "setting": "NMDARs; ref Stepanenko et al., 2019", "value": "about 1.2 s"}, {"measurement": "δ, fraction of the membrane electric field", "setting": "NMDARs; ref Stepanenko et al., 2019", "value": 0.51}, {"measurement": "IC50", "setting": "NMDARs; ref Stepanenko et al., 2019, read-out: IC50(0 mV)", "value": 321, "unit": "µM"}, {"measurement": "IC50", "setting": "[1]", "value": 1.6, "unit": "µM"}]}, {"compound": "CN(C)CCCN1c2ccccc2CCc2ccc(Cl)cc21", "note": "[CLO, clomipramine]", "values": [{"measurement": "therapeutic blood concentrations", "setting": "[2]", "value": "0.3 to 1", "unit": "µM"}, {"measurement": "δ, fraction of the membrane electric field to the binding site", "setting": "[3]", "value": 0.51}]}, {"compound": "CNCCCN1c2ccccc2CCc2ccccc21", "note": "[DES, desipramine]", "values": [{"measurement": "e-fold change Vm", "setting": "NMDARs; 5 μM NMDA, physiological extracellular Ca2+, ref Sernagor et al., 1989", "value": 36, "unit": "mV"}, {"measurement": "IC50", "setting": "NMDARs; 5 μM NMDA, physiological extracellular Ca2+, ref Sernagor et al., 1989, read-out: IC50", "value": 9.8, "unit": "µM"}, {"measurement": "IC50", "setting": "NMDARs; Vm = −70 mV, extracellular Ca2+ present, 100 μM NMDA, ref Barygin et al., 2017, read-out: IC50", "value": 1.4, "unit": "µM"}, {"measurement": "IC50", "setting": "NMDARs; Vm = −70 mV, extracellular Ca2+ present, 100 μM NMDA, ref Nothdurfter et al., 2013, read-out: IC50", "value": 2.7, "unit": "µM"}, {"measurement": "IC50", "setting": "NMDARs; varying experimental conditions, ref Reynolds and Miller 1988, Sernagor et al., 1989, Nothdurfter et al., 2013, Barygin et al., 2017, read-out: IC50 values reported for NMDAR inhibition", "value": "1.4 to 9.8", "unit": "µM"}, {"measurement": "concentration displacing MK-801 from the NMDAR channels", "setting": "NMDAR channels", "value": 7.41, "unit": "µM"}, {"measurement": "fold lesser rate of dissociation from channels than ATL", "setting": "[4]", "value": "about 5 folds"}, {"measurement": "rate constant of unblock k−", "setting": "[4]; Vm = −70 mV, Ca2+-free solution, 1/τoff", "value": "0.039 ± 0.005", "unit": "s⁻¹"}, {"measurement": "rate constant of block k+", "setting": "[4]; Vm = −70 mV, Ca2+-free solution, from τon at 20 and 90 μM", "value": "8000 ± 2000", "unit": "M⁻¹ s⁻¹"}, {"measurement": "Kd", "setting": "[4]; Vm = −70 mV, Ca2+-free solution, read-out: equilibrium dissociation constant Kd = k−/k+", "value": "4.7 ± 1.9", "unit": "µM"}, {"measurement": "IC50", "setting": "[1]", "value": 0.13, "unit": "µM"}, {"measurement": "fold drop of IC50 on increasing extracellular [Ca2+] from 0 to 1 mM", "setting": "[3]", "value": 5, "unit": "fold"}, {"measurement": "fold smaller Vm shift for an e-fold change of IC50 than ATL or CLO", "setting": "[3]", "value": "~1.5", "unit": "folds"}, {"measurement": "δ, fraction of the membrane electric field to the binding site", "setting": "[3]", "value": 0.71}, {"measurement": "open-channel block potency relative to ATL", "setting": "[3]; based on IC50 (0 mV)", "value": "about 5 folds"}, {"measurement": "e-fold change Vm (Vm shift giving an e-fold change of IC50)", "setting": "[3]; fit with Eq. 6", "value": "37 ± 3.4 mV and 37 mV and 36.9 ± 3.4 mV"}, {"measurement": "e-fold change [Ca2+] ([Ca2+] shift giving an e-fold change of IC50)", "setting": "[3]; fit with Eq. 6, Vm = −70 mV", "value": "590 µM and 590 ± 70 µM"}, {"measurement": "IC50", "setting": "[3]; read-out: IC50(0 mV), value of IC50 at Vm = 0 mV from fit with Eq. 6 (Woodhull)", "value": "60 ± 5.7", "unit": "µM"}, {"measurement": "IC50", "setting": "[3]; read-out: IC50 of the inhibition of NMDAR currents, Vm = −30 mV, [Ca2+] = 0", "value": 27, "unit": "µM"}, {"measurement": "IC50", "setting": "[3]; read-out: IC50 of the inhibition of NMDAR currents, Vm = −30 mV, [Ca2+] = 1 mM", "value": 4.85, "unit": "µM"}, {"measurement": "IC50", "setting": "[3]; read-out: IC50 of the inhibition of NMDAR currents, Vm = −70 mV, [Ca2+] = 0", "value": 8.3, "unit": "µM"}, {"measurement": "IC50", "setting": "[3]; read-out: IC50 of the inhibition of NMDAR currents, Vm = −70 mV, [Ca2+] = 1 mM", "value": 1.75, "unit": "µM"}, {"measurement": "IC50", "setting": "[3]; read-out: IC50 of the inhibition of NMDAR currents, Vm = −70 mV, [Ca2+] = 4 mM", "value": "1.8 µM and 1.81 µM"}, {"measurement": "IC50", "setting": "[3]; read-out: IC50 of the inhibition of NMDAR currents, Vm = −100 mV, [Ca2+] = 1 mM", "value": 0.89, "unit": "µM"}, {"measurement": "fold IC50 decrease with Vm shift from −30 to −100 mV", "setting": "[3]; regardless of extracellular calcium", "value": 5.4, "unit": "fold"}]}]}
